The text below walks through data of patent US10858335B2 (Rigel Pharmaceuticals, Inc., priority 2014, dated 2020).

The structures appear in SMILES notation. pIC50: −log10 of the molar value.

The first assay has as its system GDF8 signaling (p-SMAD-3 (Ser423/425)). Put plainly: AlphaScreen SureFire SMAD3 (p-Ser423/425) assay, GDF8-stimulated cells (GDF pSMAD). It is filed as cell-based. The following applies: Mus musculus, MPC-11, GDF8-stimulated pSMAD3, MPC11; tested as the salt form given; read-out: GDF pSMAD (MPC11) (μM), inhibition of GDF8 signaling. For orientation: In Alpha technology, singlet oxygen from a donor bead excites a nearby acceptor bead.
On to `Cc1cnc(-c2cccc(O)c2)c(-c2ccc3ncnc(N)c3c2)c1` [compound 991, 3-(3-(4-aminoquinazolin-6-yl)-5-methylpyridin-2-yl)phenol], for which the IC50 came to 20.2 µM.
Take `Cn1ccc(Nc2ncnc3ccc(-c4cccnc4-c4cc(Cl)ccc4F)cc23)n1` [compound 1032, 6-(2-(5-chloro-2-fluorophenyl)pyridin-3-yl)-N-(1-methyl-1H-pyrazol-3-yl)quinazolin-4-amine]: the IC50 is 1.09 µM.
As to `Cc1cc2ncnc(N)c2cc1-c1cccnc1-c1ccc(F)c(Cl)c1` [compound 980, 6-(2-(3-chloro-4-fluorophenyl)pyridin-3-yl)-7-methylquinazolin-4-amine], the IC50 was 3.73 µM.
The same measure, in the same setting: then `Fc1cc(F)c(F)c(-c2ncccc2-c2ccn3nccc3n2)c1` [compound 1052, 6-(2-(4-Fluoro-2,5-dimethylphenyl)pyridin-3-yl)-[,2,4]triazolo[1,5-a]pyridine], with 3.61 µM; and `Nc1ncnc2ccc(-c3cc(F)cnc3-c3ccc(F)c(Cl)c3)cc12` [compound 998, 6-(2-(3-chloro-4-fluorophenyl)-5-fluoropyridin-3-yl)quinazolin-4-amine], with 2.44 µM; and `Cc1cc(-c2ncccc2-c2ccc3ncnc(N)c3c2)c(Cl)cc1F` [compound 1012, 6-(2-(2-chloro-4-fluoro-5-methylphenyl)pyridin-3-yl)quinazolin-4-amine], with 0.728 µM.
Same read-out and setting: next, `Fc1cc(-c2ncccc2-c2ccc3ncsc3c2)c(F)c(F)c1F` [compound 1054]: 0.737 µM.

The assay is the same for the next values; noted with them: Mus musculus, MPC-11, MPC11; GDF8-stimulated; p-SMAD3 AlphaScreen; read-out: GDF pSMAD (MPC11) (inhibition of GDF8 signaling).
For the molecule `Cc1cccc(-c2cccnc2-c2ccc3[nH]ncc3c2)n1` [compound 517, 5-(6-Methyl-[2,3′-bipyridin]-2′-yl)-1H-indazole], the pIC50 was 5.93.
As to `Fc1cc(F)c(-c2ncccc2-c2ccn3ncnc3c2)cc1F` [compound 874, 7-(2-(2,4,5-Trifluorophenyl)pyridin-3-yl)-[1,2,4]triazolo[1,5-a]pyridine], the pIC50 was 5.19.
`Cc1cc(-c2ncccc2-c2ccc3ncnc(Oc4cccnc4)c3c2)ccc1F` [compound 442, 6-(2-(4-Fluoro-3-methylphenyl)pyridin-3-yl)-4-(pyridin-3-yloxy)quinazoline]: the pIC50 is 6.44.
Take `Cc1cc(-c2ncc(NCc3ccc(C(N)=O)cc3)cc2-c2ccc3nccnc3c2)ccc1F` [compound 307, 4-(((6-(4-Fluoro-3-methylphenyl)-5-(quinoxalin-6-yl)pyridin-3-yl)amino)methyl)benzamide]: the pIC50 was 5.65.
As for `Clc1cccc(-c2ncccc2-c2ccc3nccn3c2)c1` [compound 698, 6-(2-(3-Chlorophenyl)pyridin-3-yl)imidazo[1,2-a]pyridine], the pIC50 is 6.84.
Turning to `Cc1cc(-c2ncccc2-c2ccn3ncc(C(=O)NCCO)c3c2)ccc1F` [compound 707, 5-(2-(4-Fluoro-3-methylphenyl)pyridin-3-yl)-N-(2-hydroxyethyl)pyrazolo[1,5-a]pyridine-3-carboxamide], the pIC50 is 6.65.
Still for that read-out and setting: next, `c1cnc(-c2ccc3[nH]ncc3c2)c(-c2ccc3[nH]ncc3c2)c1` [Compound 64, 5-(3-(1H-Indazol-5-yl)pyridin-2-yl)-1H-indazole]: 6.08.
Turning to `Clc1ccc(Cl)c(-c2ncccc2-c2ccc3nccn3c2)c1` [compound 872, 6-(2-(2,5-Dichlorophenyl)pyridin-3-yl)imidazo[1,2-a]pyridine], the pIC50 was 6.11.
As to `Cc1cc(-c2ncc(N)cc2-c2ccc3[nH]ncc3c2)ccc1F` [Compound 17, 6-(4-Fluoro-3-methylphenyl)-5-(1H-indazol-5-yl)pyridin-3-amine], the pIC50 is 6.47.
`Cc1cc(-c2ncccc2-c2ccn3ncc(C(=O)NC4CC5CCC(C4)N5C)c3c2)ccc1F` (racemic) [compound 714, rac-5-(2-(4-Fluoro-3-methylphenyl)pyridin-3-yl)-N-(8-methyl-8-azabicyclo[3.2.1]octan-3-yl)pyrazolo[1,5-a]pyridine-3-carboxamide]: the pIC50 is 5.25.
Same read-out and setting: then `Cc1cc(-c2ncccc2-c2ccn3c(C(=O)NCCCN4CCN(C)CC4)ncc3c2)ccc1F` [compound 264, 7-(2-(4-Fluoro-3-methylphenyl)pyridin-3-yl)-N-(3-(4-methylpiperazin-1-yl)propyl)imidazo[1,5-a]pyridine-3-carboxamide], with 5.04.
The same measure, in the same setting: then `N#Cc1cnc2ccc(-c3cccnc3-c3cccc(Cl)c3)cn12` [compound 697, 6-(2-(3-Chlorophenyl)pyridin-3-yl)imidazo[1,2-a]pyridine-3-carbonitrile], with 6.38.
On to `Cc1cc(-c2ncccc2-c2ccnc(Nc3cccc(S(N)(=O)=O)c3)n2)ccc1F` [compound 907, 3-((4-(2-(4-Fluoro-3-methylphenyl)pyridin-3-yl)pyrimidin-2-yl)amino)benzenesulfonamide], for which the pIC50 was 6.79.
As to `Cc1cc(-c2ncccc2-c2ccc3ncc(C(C)(C)O)n3c2)ccc1F` [compound 599, 2-(6-(2-(4-Fluoro-3-methylphenyl)pyridin-3-yl)imidazo[1,2-a]pyridin-3-yl)propan-2-ol], the pIC50 was 5.41.
In the case of `Cc1cc(-c2ncccc2-c2ccc3onc(N)c3c2)ccc1F` [compound 795, 5-(2-(4-Fluoro-3-methylphenyl)pyridin-3-yl)benzo[d]isoxazol-3-amine], the pIC50 was 5.09.
Regarding `Cc1cnc2ccc(-c3cccnc3-c3ccc(F)c(Cl)c3)cn12` [compound 764, 6-(2-(3-Chloro-4-fluorophenyl)pyridin-3-yl)-3-methylimidazo[1,2-a]pyridine], the pIC50 was 6.56.
In the case of `Cc1cc(-c2ncccc2-c2ccn3ncc(C(=O)NCCN(C)C)c3c2)ccc1F` [compound 673, N-(2-(Dimethylamino)ethyl)-5-(2-(4-fluoro-3-methylphenyl)pyridin-3-yl)pyrazolo[1,5-a]pyridine-3-carboxamide], the pIC50 was 6.43.
For `O=c1[nH]cnc2ccc(-c3cccnc3-c3ccc(F)c(Cl)c3)nc12` [compound 960, 6-(2-(3-Chloro-4-fluorophenyl)pyridin-3-yl)pyrido[3,2-d]pyrimidin-4(3H)-one], the pIC50 was 5.77.
Turning to `[2H]C([2H])([2H])c1cccc(-c2ncccc2-c2ccc3nccn3c2)c1` [compound 600, 6-(2-(3-(Methyl-d3)phenyl)pyridin-3-yl)imidazo[1,2-a]pyridine], the pIC50 was 6.75.
For `Cc1cccc(-c2ncccc2-c2ccn3nccc3c2)c1` [compound 757, 5-(2-(m-Tolyl)pyridin-3-yl)pyrazolo[1,5-a]pyridine], the pIC50 was 6.89.
In the case of `Cc1cc(-c2ncccc2-c2ccc3ncn(CCCO)c3c2)ccc1F` [Compound 41, 3-(6-(2-(4-Fluoro-3-methylphenyl)pyridin-3-yl)-1H-benzo[d]imidazol-1-yl)propan-1-ol], the pIC50 is 5.50.
For `Cc1cccc(-c2ncccc2-c2ccc3ncc(N(C)C)n3c2)c1` [compound 552, N,N-Dimethyl-6-(2-(m-tolyl)pyridin-3-yl)imidazo[1,2-a]pyridin-3-amine], the pIC50 is 5.39.
`Cc1cc(-c2ncccc2-c2ccc3nccn3c2)ccc1F` [Compound 165, 6-(2-(4-Fluoro-3-methylphenyl)pyridin-3-yl)imidazo[1,2-a]pyridine]: the pIC50 is 6.58.
With `Cc1cc(-c2ncccc2-c2ccc3c(N)n[nH]c3c2)ccc1F` [compound 786, 6-(2-(4-Fluoro-3-methylphenyl)pyridin-3-yl)-1H-indazol-3-amine], the pIC50 was 6.47.
As for `Cc1cc(-c2ncccc2-c2ccc3ncc(C(=O)Nc4ccncc4)n3c2)ccc1F` [compound 654, 6-(2-(4-Fluoro-3-methylphenyl)pyridin-3-yl)-N-(pyridin-4-yl)imidazo[1,2-a]pyridine-3-carboxamide], the pIC50 was 6.26.
For the molecule `CCn1cnc2ccc(-c3cccnc3-c3ccc(F)c(C)c3)cc21` [Compound 46, 1-Ethyl-6-(2-(4-fluoro-3-methylphenyl)pyridin-3-yl)-1H-benzo[d]imidazole], the pIC50 was 5.76.
`Cc1cc(-c2ncccc2-c2cn3ccnc3cc2C)ccc1F` [compound 808, 6-(2-(4-Fluoro-3-methylphenyl)pyridin-3-yl)-7-methylimidazo[1,2-a]pyridine]: the pIC50 was 5.81.
The same measure, in the same setting: next, `COc1ncnc2ccc(-c3cccnc3-c3cccc(C)c3)cc12` [compound 376, 4-Methoxy-6-(2-(m-tolyl)pyridin-3-yl)quinazoline]: 6.56; `Nc1ncnc2ccc(-c3cccnc3-c3ccc(F)c(C(F)(F)F)c3)cc12` [compound 476, 6-(2-(4-Fluoro-3-(trifluoromethyl)phenyl)pyridin-3-yl)quinazolin-4-amine]: 5.56; `Cc1cc(-c2ncc(NCc3ccc(O)cc3)cc2-c2ccc3ncsc3c2)ccc1F` [compound 333, 4-(((5-(Benzo[d]thiazol-6-yl)-6-(4-fluoro-3-methylphenyl)pyridin-3-yl)amino)methyl)phenol]: 6.42.
Regarding `CCc1cccc(-c2ncccc2-c2ccc3[nH]ncc3c2)c1` [Compound 149, 5-(2-(3-Ethylphenyl)pyridin-3-yl)-1H-indazole], the pIC50 was 6.19.
Take `Cn1cnc2ccc(-c3cccnc3-c3cccc(O)c3)cc2c1=O` [compound 379, 6-(2-(3-Hydroxyphenyl)pyridin-3-yl)-3-methylquinazolin-4(3H)-one]: the pIC50 is 6.40.
As to `CCOc1cnc(-c2cccc(C)c2)c(-c2ccc3[nH]ncc3c2)c1` [Compound 3, 5-(5-Ethoxy-2-m-tolylpyridin-3-yl)-1H-indazole], the pIC50 was 5.89.
As to `Cc1cc(-c2ncccc2-c2ccc3nncn3c2)ccc1F` [Compound 161, 6-(2-(4-Fluoro-3-methylphenyl)pyridin-3-yl)-[1,2,4]triazolo[4,3-a]pyridine], the pIC50 was 5.04.
In the case of `CCOc1cnc(-c2ccc(F)cc2)c(-c2ccc3[nH]ncc3c2)c1` [Compound 6, 5-(5-Ethoxy-2-(4-fluorophenyl)pyridin-3-yl)-1H-indazole], the pIC50 is 4.73.
As for `Cc1cccc(-c2ncccc2-c2ccc3ncn(CCCO)c3c2)c1` [compound 38], the pIC50 is 5.49.
